In US9512120B2, “Microbicidally active imidazopyridine derivatives” (Syngenta Participations AG, priority 2013, dated 2016):

Tests used:
Plasmopara viticola = Plasmopara viticola / grape / leaf disc preventative; assay type: in vivo; conditions: foliar, grape vine leaf disks, inoculated 1 day after application, assessed 6-8 days after application, read-out: control of Plasmopara viticola (percent disease control compared to untreated)
[1] = system: Thanatephorus cucumeris (Rhizoctonia solani); assay: Thanatephorus cucumeris (Rhizoctonia solani) / liquid culture (foot rot, damping-off); assay type: cell-based; conditions: PDB, 24° C., 3-4 days after application, read-out: control of Thanatephorus cucumeris (inhibition of growth, photometric)
How it was run: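 Mycelial fragments in potato dextrose broth exposed to test compounds at 200 ppm (from DMSO solution), incubated at 24° C. Growth inhibition read photometrically 3-4 days after application.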

[2] = system: Mycosphaerella graminicola (Septoria tritici); assay: Mycosphaerella graminicola (Septoria tritici) / liquid culture (Septoria blotch); assay type: cell-based; conditions: Zymoseptoria tritici, PDB, 24° C., 4-5 days after application, read-out: control of Mycosphaerella graminicola (inhibition of growth, photometric)
How it was run: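 Cryo-stored conidia in potato dextrose broth were added to compound in DMSO at 200 ppm in microtiter plates. Plates were incubated at 24 °C and growth inhibition was measured photometrically 4–5 days after application.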

Pyrenophora teres = Pyrenophora teres / barley / leaf disc preventative (net blotch); assay type: in vivo; conditions: foliar, barley leaf segments cv Hasso, inoculated two days after application, assessed 5-7 days after application, read-out: control of Pyrenophora teres (disease control compared to untreated)
How it was run: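 Barley cv Hasso leaf segments on agar sprayed with compound at 200 ppm, inoculated with spores two days later. Kept at 20 °C, 65% RH, 12/12 h light; disease control versus untreated scored 5-7 days after application.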

[3] = system: Monographella nivalis (Microdochium nivale); assay: Monographella nivalis (Microdochium nivale) / liquid culture (foot rot cereals); assay type: cell-based; conditions: PDB, 24° C., 4-5 days after application, read-out: control of Monographella nivalis (inhibition of growth, photometric)
How it was run: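 Cryostored conidia in potato dextrose broth were added to test compound dispensed from DMSO at 200 ppm. Plates were kept at 24° C, and growth inhibition was read photometrically 4-5 days after application.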

[4] = system: Mycosphaerella arachidis (Cercospora arachidicola); assay: Mycosphaerella arachidis (Cercospora arachidicola) / liquid culture (early leaf spot); assay type: cell-based; conditions: PDB, 24° C., 4-5 days after application, read-out: control of Mycosphaerella arachidis (inhibition of growth, photometric)
Procedure: Mycosphaerella Arachidis (Cercospora arachidicola)/Liquid Culture (Early Leaf Spot): Conidia of the fungus from cryogenic storage were directly mixed into nutrient broth (PDB potato dextrose broth). After placing a DMSO solution of test compound into a 96-well microtiter plate at an application rate of 200 ppm, the nutrient broth containing the fungal spores was added. The test plates are incubated at 24° C. and the inhibition of growth was determined photometrically 4-5 days after application.

[5] = system: Puccinia recondita f. sp. Tritici; assay: Puccinia recondita f. sp. tritici / wheat / leaf disc preventative (brown rust); assay type: in vivo; conditions: foliar, wheat leaf segments cv Kanzler, inoculated 1 day after application, assessed 7-9 days after application, read-out: control of Puccinia recondita f. sp. Tritici (percent disease control compared to untreated)
How it was run: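 Leaf segments of wheat cv Kanzler on agar were sprayed with formulated compound at 200 ppm and inoculated with spores 1 day later. Incubation was at 19° C, 75% relative humidity and 12/12 h light/dark. Activity was scored 7-9 days after application as percent disease control versus untreated.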

[6] = system: Phaeosphaeria nodorum (Septoria nodorum); assay: Phaeosphaeria nodorum (Septoria nodorum) / wheat / leaf disc preventative (glume blotch); assay type: in vivo; conditions: Parastagonospora nodorum, foliar, wheat leaf segments cv Kanzler, inoculated 2 days after application, assessed 5-7 days after application, read-out: control of Phaeosphaeria nodorum (percent disease control compared to untreated)
How it was run: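 Wheat leaf segments (cv Kanzler) on agar sprayed with compound at 200 ppm, inoculated with spores 2 days later. Incubated at 20° C., 75% relative humidity, 12/12 h light/dark; percent disease control versus untreated scored 5-7 days after application.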

Sclerotinia sclerotiorum = Sclerotinia sclerotiorum liquid culture (cottony rot / white mold); assay type: cell-based; conditions: PDB, 24° C., 3-4 days after application, read-out: control of Sclerotinia sclerotiorum (inhibition of growth, photometric)
Procedure: Sclerotinia sclerotiorum (Cottony Rot/White Mold): Mycelia fragments of a newly grown liquid culture of the fungus were directly mixed into nutrient broth (PDB potato dextrose broth). After placing a (DMSO) solution of test compound into a microtiter plate (96-well format) the nutrient broth containing the fungal material was added. The test plates are incubated at 24° C. and the inhibition of growth was determined photometrically 3-4 days after application.

[7] = system: Botryotinia fuckeliana (Botrytis cinerea); assay: Botryotinia fuckeliana (Botrytis cinerea) / liquid culture (gray mould); assay type: cell-based; conditions: Vogels broth, 24° C., 3-4 days after application, read-out: control of Botryotinia fuckeliana (inhibition of growth, photometric)
How it was run: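 Botrytis cinerea conidia in Vogels broth were added to test compound applied from DMSO at 200 ppm. Incubation at 24 °C; growth inhibition read photometrically 3-4 days after application.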

[8] = system: Glomerella lagenarium (Colletotrichum lagenarium); assay: Glomerella lagenarium (Colletotrichum lagenarium) / liquid culture (anthracnose); assay type: cell-based; conditions: Colletotrichum orbiculare, PDB, 24° C., 3-4 days after application, read-out: control of Glomerella lagenarium (inhibition of growth, photometric)
How it was run: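 Cryopreserved conidia suspended in potato dextrose broth were added to compound in DMSO applied at 200 ppm. Plates incubated at 24° C; growth inhibition read photometrically 3-4 days after application.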

Gaeumannomyces graminis = Gaeumannomyces graminis / liquid culture (take-all of cereals); assay type: cell-based; conditions: PDB, 24° C., 4-5 days after application, read-out: control of Gaeumannomyces graminis (inhibition of growth, photometric)
How it was run: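 Mycelial fragments in potato dextrose broth were exposed to compound from DMSO at 200 ppm in microtiter plates. Incubation at 24 °C; growth inhibition read photometrically 4-5 days after application.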

melting point [°C]	Compound	pest or weed control at 200 ppm (Plasmopara viticola) [%]	inhibition at 20 ppm [1] [%]	inhibition at 20 ppm [2] [%]	pest or weed control at 200 ppm (Pyrenophora teres) [%]	inhibition at 20 ppm [3] [%]	inhibition at 20 ppm [4] [%]	pest or weed control at 200 ppm [5] [%]	pest or weed control at 200 ppm [6] [%]	inhibition at 20 ppm (Sclerotinia sclerotiorum) [%]	inhibition at 20 ppm [7] [%]	inhibition at 20 ppm [8] [%]	inhibition at 20 ppm (Gaeumannomyces graminis) [%]
–	CCn1c(-n2ncnc2N)nc2cncc(-c3cccc4ccccc34)c21 [Compound 40, 2-(1-ethyl-7-naphthalen-1-ylimidazo[4,5-c]pyridin-2-yl)-1,2,4-triazol-3-amine]	≥ 80	≥ 80	≥ 80	≥ 80	–	–	–	–	–	–	–	–
–	CCn1c(-n2ncnc2N)nc2cncc(C(C)=NOCC=C(Cl)Cl)c21 [Compound 155]	≥ 80	≥ 80	≥ 80	≥ 80	≥ 80	≥ 80	≥ 80	≥ 80	≥ 80	≥ 80	≥ 80	–
–	CCn1c(-n2ncnc2N)nc2cncc(-c3ccc(C)cc3C)c21 [Compound 45, 2-[7-(2,4-dimethylphenyl)-1-ethylimidazo[4,5-c]pyridin-2-yl]-1,2,4-triazol-3-amine]	≥ 80	≥ 80	≥ 80	≥ 80	–	≥ 80	≥ 80	≥ 80	–	≥ 80	–	–
–	CCn1c(-n2ncnc2N)nc2cncc(C(C)=NOCc3ccccc3)c21 [Compound 165]	≥ 80	≥ 80	≥ 80	≥ 80	≥ 80	–	≥ 80	≥ 80	≥ 80	≥ 80	≥ 80	–
175 to 187	CCn1c(-n2ncnc2N)nc2cncc(C(C)=NOCc3ccc(F)cc3)c21 [Compound 135]	≥ 80	≥ 80	≥ 80	≥ 80	–	–	≥ 80	–	–	≥ 80	–	≥ 80
–	CCn1c(-n2ncnc2N)nc2cncc(C(C)=NOCC(F)(F)F)c21 [Compound 169]	≥ 80	≥ 80	≥ 80	≥ 80	–	–	≥ 80	–	–	≥ 80	≥ 80	–
–	CCn1c(-n2ncnc2N)nc2cncc(/C(C)=N\OCC(C)C)c21 [Compound 161]	≥ 80	≥ 80	≥ 80	≥ 80	–	≥ 80	≥ 80	–	≥ 80	≥ 80	≥ 80	–
–	CCn1c(-n2ncnc2N)nc2cncc(-c3cccc4c3OC(F)(F)O4)c21 [Compound 48, 2-[7-(2,2-difluoro-1,3-benzodioxol-4-yl)-1-ethylimidazo[4,5-c]pyridin-2-yl]-1,2,4-triazol-3-amine]	≥ 80	≥ 80	≥ 80	≥ 80	≥ 80	≥ 80	≥ 80	≥ 80	≥ 80	≥ 80	≥ 80	≥ 80
201 to 209	CCn1c(-n2ncnc2N)nc2cncc(C3CC(c4ccccc4)=NO3)c21 (centres unmarked) [Compound 109, 2-[1-ethyl-7-(3-phenyl-4,5-dihydro-1,2-oxazol-5-yl)imidazo[4,5-c]pyridin-2-yl]-1,2,4-triazol-3-amine]	≥ 80	≥ 80	≥ 80	≥ 80	–	–	≥ 80	–	–	≥ 80	–	≥ 80
–	CCn1c(-n2ncnc2N)nc2cncc(C(C)=NOCc3ccccc3Cl)c21 [Compound 144]	≥ 80	≥ 80	≥ 80	≥ 80	≥ 80	–	≥ 80	≥ 80	≥ 80	≥ 80	≥ 80	–
–	CCn1c(-n2ncnc2N)nc2cncc(/C(C)=N\OCC=C(C)C)c21 [Compound 156]	≥ 80	≥ 80	≥ 80	≥ 80	≥ 80	–	≥ 80	≥ 80	≥ 80	≥ 80	≥ 80	–
–	CCn1c(-n2ncnc2N)nc2cncc(C(C)=NOCc3c(Cl)cccc3Cl)c21 [Compound 160]	≥ 80	≥ 80	≥ 80	≥ 80	–	–	≥ 80	–	–	–	–	–
–	CCn1c(-n2ncnc2N)nc2cncc(C(C)=NOCc3ccccc3OC)c21 [Compound 146]	≥ 80	≥ 80	≥ 80	≥ 80	–	–	≥ 80	–	–	≥ 80	≥ 80	–
–	CCCn1c(-n2ncnc2N)nc2cncc(-c3ccc(Cl)cc3Cl)c21 [Compound 118, 2-[7-(2,4-dichlorophenyl)-1-propylimidazo[4,5-c]pyridin-2-yl]-1,2,4-triazol-3-amine]	≥ 80	≥ 80	≥ 80	≥ 80	≥ 80	–	–	≥ 80	–	≥ 80	≥ 80	≥ 80
–	CCn1c(-n2ncnc2N)nc2cncc(/C(C)=N\OC(C)C)c21 [Compound 166]	≥ 80	≥ 80	≥ 80	≥ 80	–	–	≥ 80	–	–	≥ 80	≥ 80	–
